Source: patent publication US20110054029A1, “WATER-SOLUBLE DIETARY FATTY ACIDS” (priority 2009, published 2011)

Test system: Caco-2 cell monolayers
Test: Permeability across Caco-2 cell monolayers
Assay type: in vitro ADME
Settings: Caco-2 monolayers after exposure to test article, 37° C.
Method: To test the permeability of dietary fatty acids across Caco-2 cell monolayers, Caco-2 cell monolayers are grown to confluence on collagen-coated, microporous, polycarbonate membranes in 12-well Costar Transwell® plates.
The test article is the aqueous dietary fatty acids formulation, and the dosing concentration is 2 μM in the assay buffer (HBSSg) as in the previous example. Cell monolayers are dosed on the apical side (A-to-B) or basolateral side (B-to-A) and incubated at 37° C. with 5% CO2 in a humidified incubator. Samples are taken from the donor chamber at 120 minutes, and samples from the receiver chamber are collected at 60 and 120 minutes. Each determination is performed in duplicate. Lucifer yellow permeability is also measured for each monolayer after being subjected to the test article to ensure no damage is inflicted to the cell monolayers during the permeability experiment. Permeability of samples of atenolol, propranolol and digoxin are also measured to compare with the permeability of the dietary fatty acids sample. All samples are assayed for dietary fatty acids, or corresponding comparative compounds, by LC/MS/MS using electrospray ionization. The apparent permeability (Papp) and percent recovery are calculated as is known in the art. […]

**Q.** With Lucifer yellow as the substance, how does the “Papp (post-experiment monolayer integrity control)” value read?
**A.** < 0.8 ×10⁻⁶ cm/s
